{"source": "paper PMC3206575", "about": "(The Journal of Cell Biology, 1999)", "key": {"[1]": {"target": "T1, DRal (Drosophila Ral), GST-DRal (Drosophila melanogaster, UniProt P48555, S25N)", "T1 sequence (P48555 1-201 S25N)": "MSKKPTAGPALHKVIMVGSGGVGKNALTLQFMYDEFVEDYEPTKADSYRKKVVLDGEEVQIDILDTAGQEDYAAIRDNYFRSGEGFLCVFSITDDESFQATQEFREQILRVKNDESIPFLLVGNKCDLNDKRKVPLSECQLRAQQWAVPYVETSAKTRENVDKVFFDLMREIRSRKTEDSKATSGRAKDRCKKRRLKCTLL", "test": "[3H]GDP binding to GST fusion protein"}, "[2]": {"target": "T2, DRal (Drosophila Ral), GST-DRal (Drosophila melanogaster, UniProt P48555)", "T2 sequence (P48555 1-201)": "T1 sequence (P48555 1-201 S25N) with N25S", "test": "[3H]GDP binding to GST fusion protein"}, "[3]": {"target": "T3, DRal (Drosophila Ral), GST-DRal (Drosophila melanogaster, UniProt P48555, G20V)", "T3 sequence (P48555 1-201 G20V)": "T1 sequence (P48555 1-201 S25N) with G20V, N25S", "test": "[3H]GDP binding to GST fusion protein"}, "[4]": {"target": "T3, DRal (Drosophila Ral), GST-DRal", "test": "[…]GTPγS binding to GST fusion protein"}, "[5]": {"target": "T2, DRal (Drosophila Ral), GST-DRal", "test": "[…]GTPγS binding to GST fusion protein"}, "[6]": {"target": "T1, DRal (Drosophila Ral), GST-DRal", "test": "[…]GTPγS binding to GST fusion protein"}}, "note": "Numbering of substitutions follows the chain as printed."}
{"compound": "Nc1nc2c(ncn2[C@@H]2O[C@H](COP(=O)(O)OP(=O)(O)O)[C@@H](O)[C@H]2O)c(=O)[nH]1", "note": "[GDP]", "values": [{"measurement": "Kd", "setting": "[1]", "value": 0.0951, "unit": "µM"}, {"measurement": "Kd", "setting": "[2]", "value": 0.014, "unit": "µM"}, {"measurement": "Kd", "setting": "[3]", "value": 0.0084, "unit": "µM"}]}
{"compound": "Nc1nc2c(ncn2[C@@H]2O[C@H](COP(=O)(O)OP(=O)(O)OP(O)(O)=S)[C@@H](O)[C@H]2O)c(=O)[nH]1", "note": "[GTPγS]", "values": [{"measurement": "Kd", "setting": "[4]", "value": 0.038, "unit": "µM"}, {"measurement": "Kd", "setting": "[5]", "value": 0.0307, "unit": "µM"}, {"measurement": "Kd", "setting": "[6]", "value": 0.406, "unit": "µM"}]}
